Measured values: publication PMC12526004, “Tiliroside Suppresses Uric Acid Production in Hepatocytes and Attenuates Purine-Induced Hyperuricemia in Male ICR Mice” (Molecules, 2025)

Experiments:
Type in all cases: in vivo, male ICR mice
URAT1 = assay: Renal mRNA expression, real-time quantitative PCR; conditions: three days, vs hyperuricemic control
Description: (§1) The antihyperuricemic effect of tiliroside was evaluated using mice with purine-induced hyperuricemia, following a previously described procedure. […] The test compounds were suspended in 0.2 mL of 0.5% CMC-Na based on the average body weight of each group. The actual volume administered was adjusted according to the individual body weight of each mouse. Prior to each administration, the mice were fasted for four hours. The negative and hyperuricemic control groups received the vehicle (0.5% CMC-Na) alone. […] GMP and IMP were dissolved in 0.2 mL of PBS (–) based on the average body weight of all mice. The injection volume was similarly adjusted according to each mouse’s body weight. These injections were performed one hour after the final oral administration of the test compounds or vehicle. The negative control group received PBS (–) alone. […] The liver and kidneys were then excised. Blood samples were centrifuged at 5000× g for 10 min at 4 °C to obtain plasma, which was stored at −80 °C until analysis. To assess renal gene expression, four mice per group were selected based on plasma UA levels approximating the group mean. Total RNA was extracted from kidney tissues of the negative control, hyperuricemic model, allopurinol-treated, and high-dose tiliroside-treated groups using the Trizol-chloroform method (Thermo Fisher Scientific). Reverse transcription was performed with 1 µg of RNA using iScript reverse transcriptase (Bio-Rad, Hercules, CA, USA). Quantitative PCR was conducted using the MyiQ2 real-time PCR system (Bio-Rad), with GAPDH as the reference gene.

OAT1 = assay: Renal mRNA expression, real-time quantitative PCR; conditions: three days
Description: as §1

NPT4 = assay: Renal mRNA expression, real-time quantitative PCR; conditions: three days
Description: as §1

[1] = tested on: hepatic XO protein expression; assay: Western blot of hepatic XO protein expression; conditions: three days, normalized to GAPDH
Description: The antihyperuricemic effect of tiliroside was evaluated using mice with purine-induced hyperuricemia, following a previously described procedure. […] The test compounds were suspended in 0.2 mL of 0.5% CMC-Na based on the average body weight of each group. The actual volume administered was adjusted according to the individual body weight of each mouse. Prior to each administration, the mice were fasted for four hours. The negative and hyperuricemic control groups received the vehicle (0.5% CMC-Na) alone. […] GMP and IMP were dissolved in 0.2 mL of PBS (–) based on the average body weight of all mice. The injection volume was similarly adjusted according to each mouse’s body weight. These injections were performed one hour after the final oral administration of the test compounds or vehicle. The negative control group received PBS (–) alone. […] The liver and kidneys were then excised. Blood samples were centrifuged at 5000× g for 10 min at 4 °C to obtain plasma, which was stored at −80 °C until analysis. Liver samples preparation was performed according to the methods previously described. Each portion of the liver tissue was processed for a specific analysis. One portion was homogenized in ice-cold 100 mM Tris-HCl buffer (pH 7.5), followed by sonication and centrifugation at 10,000× g for 5 min at 4 °C. The resulting supernatant was collected for the determination of UA levels. […]

[2] = tested on: mice with purine-induced hyperuricemia; assay: Plasma UA in mice with purine-induced hyperuricemia; conditions: three days; for effect on plasma UA increase / effect on plasma UA levels: vs hyperuricemic control
Description: The antihyperuricemic effect of tiliroside was evaluated using mice with purine-induced hyperuricemia, following a previously described procedure. […] The test compounds were suspended in 0.2 mL of 0.5% CMC-Na based on the average body weight of each group. The actual volume administered was adjusted according to the individual body weight of each mouse. Prior to each administration, the mice were fasted for four hours. The negative and hyperuricemic control groups received the vehicle (0.5% CMC-Na) alone. […] GMP and IMP were dissolved in 0.2 mL of PBS (–) based on the average body weight of all mice. The injection volume was similarly adjusted according to each mouse’s body weight. These injections were performed one hour after the final oral administration of the test compounds or vehicle. The negative control group received PBS (–) alone. […] The liver and kidneys were then excised. Blood samples were centrifuged at 5000× g for 10 min at 4 °C to obtain plasma, which was stored at −80 °C until analysis. UA concentrations in plasma and liver homogenates were determined using the uricase-based Uric Acid C-Test Wako. Protein concentrations in the liver samples were measured with the Pierce™ BCA Protein Assay Kit. Liver UA levels were expressed as milligrams per gram of liver protein (mg/g protein).

Row | Structure (SMILES) | renal URAT1 mRNA expression (URAT1; 10 mg/kg oral) | renal OAT1 mRNA expression (OAT1; 10 mg/kg oral) | renal NPT4 mRNA expression (NPT4; 10 mg/kg oral) | hepatic XO protein expression ([1]; 10 mg/kg oral) | effect on plasma UA increase ([2]; 10 mg/kg body weight oral) | renal URAT1 mRNA expression (URAT1; 300 mg/kg oral) | renal OAT1 mRNA expression (OAT1; 300 mg/kg oral) | renal NPT4 mRNA expression (NPT4; 300 mg/kg oral) | hepatic XO protein expression ([1]; all tested doses (50, 100, and 300 mg/kg) oral) | effect on plasma UA levels ([2]; 50 mg/kg body weight oral) | effect on plasma UA levels ([2]; 100 mg/kg body weight oral) | effect on plasma UA increase ([2]; 300 mg/kg body weight oral) | lowering of plasma UA level ([2]; 300 mg/kg oral, hyperuricemic mice)
1 | Oc1ncnc2[nH]ncc12 [Allopurinol, allopurinol, reference compound] | significantly downregulated | no significant differences | no significant differences | No statistically significant differences | significantly reduced | – | – | – | – | – | – | – | –
2 | O=C(/C=C/c1ccc(O)cc1)OC[C@H]1O[C@@H](Oc2c(-c3ccc(O)cc3)oc3cc(O)cc(O)c3c2=O)[C@H](O)[C@@H](O)[C@@H]1O [Tiliroside, kaempferol-3-O-(6′′-p-coumaroyl)-glucoside] | – | – | – | – | – | significantly downregulated | no significant differences | no significant differences | No statistically significant differences | failed to produce a statistically significant reduction | failed to produce a statistically significant reduction | significantly reduced | approximately 30%
